In publication PMC5094572, “A β‐mannan utilization locus in Bacteroides ovatus involves a GH36 α‐galactosidase active on galactomannans” (Febs Letters, 2016):

System: T1, BoGal36A
T1 construct: gene Bacova_02091; predicted signal peptide removed, C-terminal His6 tag kept, pET28b+, E. coli BL21(DE3); tetramer (SEC 290 kDa)
Test: continuous assay, p-nitrophenol release at […] nm, Michaelis-Menten fit
Assay type: biochemical, Bacteroides ovatus
Settings: pH 6.0, 37 °C; 50 mM sodium citrate; 0.1-5 mM substrate

Km: 132 ± 20 µM
SMILES: O=[N+]([O-])c1ccc(O[C@H]2O[C@H](CO)[C@H](O)[C@H](O)[C@H]2O)cc1 [pNP-α-gal]
